Reference: patent US20100216857A1, “METHOD OF TREATING MOTOR DISORDERS WITH 4-(1-(2,3-DIMETHYLPHENYL)ETHYL)-1H-IMIDAZOLE-2(3H)-THIONE” (priority 2007, published 2010)
Values joined by “and” are separate entries in the source; they are usually repeats but may differ in a detail not shown here. Equal entries are not always repeated. Marks after values point to notes of the source that are not given here.

Experiments:
[1] = test system: Amphetamine-induced Hyperlocomotion; test: Amphetamine-induced hyperlocomotion in the open field; type: in vivo, mice; details: for % DECREASE ACTIVITY REL TO VEH + AMPH / TOTAL ACTIVITY POST-AMPHETAMINE (AUC): mice, 15 min before amphetamine SC
Description: Drug 1 was administered 30 minutes after the animal was placed in the open field. Drug 2 was administered subcutaneously (SC) at 45 minutes after the animal was placed in the open field (15 minutes after drug 1). AUC indicates the total amount of locomotor activity after administration of drug 2. “% decrease activity” indicates the percentage decrease in total activity relative to the Vehicle+Amphetamine group. ⋄ significant difference (P<0.05) relative to Vehicle+ Amphetamine treated animals. * indicates significant difference (P ≦0.05) relative to Vehicle+Vehicle treated animals. Amphetamine- or cocaine-induced hyperactivity. Mice were placed in an open field apparatus (FlexField, San Diego Instruments, San Diego, Calif.). […] Total activity over each 5 minute bin (21 total bins) was added to establish activity curve over the 105 minute testing. For i.p. administration, the compounds are formulated in H2O with 0.5% DMSO and given in a volume of 1 ml/kg body weight by injecting into the intraperitoneal cavity. For p.o. administration, the compounds are formulated in H2O with 0.5% DMSO and given in a volume of 2 ml/kg body weight using a 25-gauge, 1.5 inch gavage needle that is slowly inserted through the esophagus into the stomach.

[2] = test system: Cocaine-induced Hyperlocomotion; test: Cocaine-induced hyperlocomotion in the open field; type: in vivo, mice; details: for % DECREASE ACTIVITY (relative to Vehicle+Cocaine) / TOTAL ACTIVITY POST-COCAINE (AUC): mice, 15 min before cocaine SC
Description: Drug 1 was administered 30 minutes after the animal was placed in the open field. Drug 2 was administered subcutaneously (SC) at 45 minutes after the animal was placed in the open field (15 minutes after drug 1). AUC indicates the total amount of locomotor activity after administration of drug 2. “% decrease activity” indicates the percentage decrease in total activity relative to the Vehicle+Cocaine group. ⋄ indicates significant difference (P≦0.05) relative to Vehicle+Cocaine treated animals. * indicates significant difference (P≦0.05) relative to Vehicle+Vehicle treated animals. Amphetamine- or cocaine-induced hyperactivity. Mice were placed in an open field apparatus (FlexField, San Diego Instruments, San Diego, Calif.). […] Total activity over each 5 minute bin (21 total bins) was added to establish activity curve over the 105 minute testing. For i.p. administration, the compounds are formulated in H2O with 0.5% DMSO and given in a volume of 1 ml/kg body weight by injecting into the intraperitoneal cavity. For p.o. administration, the compounds are formulated in H2O with 0.5% DMSO and given in a volume of 2 ml/kg body weight using a 25-gauge, 1.5 inch gavage needle that is slowly inserted through the esophagus into the stomach.

[3] = test system: Nigrostriatal-lesion-induced Rotational Behavior; test: Nigrostriatal-lesion-induced rotational behavior following amphetamine administration; type: in vivo, rats; details: for % DECREASE ROTATIONS (relative to Vehicle+Amphetamine): nigrostriatal-lesioned rats, 15 min before amphetamine SC
Description: Table 3, below, indicates the changes in rotational behavior in nigrostriatal-lesioned rats treated with the compound of the invention and the psychostimulant amphetamine. Drug 1 was administered 15 minutes before amphetamine, and 10 minutes post-amphetamine, the animals were placed into the rotometer for 30 or 60 minutes. “% decrease rotations” indicates the percentage decrease in total rotations relative to the Vehicle+Amphetamine group. ⋄ indicates significant difference (P≦0.05) relative to Vehicle+Amphetamine treated animals. * indicates significant difference (P+0.05) relative to Vehicle+Vehicle treated animals.
Amphetamine-induced rotational behavior. Pre-Apomorphine-screened (rotated) rats (with lesions ≧95% DA cell loss) were purchased from Charles Rivers Laboratories. Animals were given ˜4 days to acclimate prior to testing. All animals weighted 250-300 g at the beginning of the study. Animals were treated with various combinations of vehicle or the compound of the invention and amphetamine.
Vehicle or the compound of the invention was administered (p.o.) 15 minutes before amphetamine (2 mg/kg s.c.). Rotational behavior was assessed 15 minutes post-amphetamine administration and was monitored for 60 minutes using a Rotometer system from San Diego Instruments (San Diego, Calif.).
For i.p. administration, the compounds are formulated in H2O with 0.5% DMSO and given in a volume of 1 ml/kg body weight by injecting into the intraperitoneal cavity. For p.o. administration, the compounds are formulated in H2O with 0.5% DMSO and given in a volume of 2 ml/kg body weight using a 25-gauge, 1.5 inch gavage needle that is slowly inserted through the esophagus into the stomach.

[4] = drug 1 at 0.1 mg/kg PO, 0.1 mg/kg

| Structure (SMILES) | inhibition of increased locomotion associated with psychostimulant administration (in words) ([1]; amphetamine-induced hyperactivity) | % DECREASE ACTIVITY REL TO VEH + AMPH ([1]; drug 1 at 0.01 mg/kg PO) | TOTAL ACTIVITY POST-AMPHETAMINE (AUC) ([1]; drug 1 at 0.01 mg/kg PO) | % DECREASE ACTIVITY REL TO VEH + AMPH ([1]; drug 1 at 0.03 mg/kg PO) | TOTAL ACTIVITY POST-AMPHETAMINE (AUC) ([1]; drug 1 at 0.03 mg/kg PO) | % DECREASE ACTIVITY REL TO VEH + AMPH [1, 4] | TOTAL ACTIVITY POST-AMPHETAMINE (AUC) [1, 4] | inhibition of increased locomotion associated with psychostimulant administration (in words) ([2]; cocaine-induced hyperactivity) | % DECREASE ACTIVITY (relative to Vehicle+Cocaine) ([2]; drug 1 at 0.01 mg/kg PO) | TOTAL ACTIVITY POST-COCAINE (AUC) ([2]; drug 1 at 0.01 mg/kg PO) | % DECREASE ACTIVITY (relative to Vehicle+Cocaine) ([2]; drug 1 at 0.03 mg/kg PO) | TOTAL ACTIVITY POST-COCAINE (AUC) ([2]; drug 1 at 0.03 mg/kg PO) | % DECREASE ACTIVITY (relative to Vehicle+Cocaine) ([2]; drug 1 at 0.1 mg/kg PO) | TOTAL ACTIVITY POST-COCAINE (AUC) ([2]; drug 1 at 0.1 mg/kg PO) | inhibition of amphetamine-induced rotational behavior (in words) ([3]; nigrostriatal-lesioned animals) | % DECREASE ROTATIONS (relative to Vehicle+Amphetamine) ([3]; drug 1 at 0.03 mg/kg PO) | % DECREASE ROTATIONS (relative to Vehicle+Amphetamine) ([3]; drug 1 at 0.1 mg/kg PO) | % DECREASE ROTATIONS (relative to Vehicle+Amphetamine) ([3]; drug 1 at 1 mg/kg PO) | % DECREASE ACTIVITY REL TO VEH + AMPH ([1]; drug 1 at 0.2 mg/kg IP) | TOTAL ACTIVITY POST-AMPHETAMINE (AUC) ([1]; drug 1 at 0.2 mg/kg IP) |
| --- | --- | --- | --- | --- | --- | --- | --- | --- | --- | --- | --- | --- | --- | --- | --- | --- | --- | --- | --- | --- |
| Cc1cccc(C(C)c2c[nH]c(=S)[nH]2)c1C (centres unmarked) [Compound of the invention, 4-(1-(2,3-dimethylphenyl)ethyl)-1H-imidazole-2(3H)-thione] | effectively inhibit increased locomotion | 32%* | 9093.3 ± 983.8 | 72%^⋄ | 3783.3 ± 214.2 | 63%^⋄ and 72%^⋄ | 5036.0 ± 654.2 and 3759.1 ± 685.4 | effectively inhibit increased locomotion | 53%^⋄ | 4904 ± 1832.1 | 31%* | 7260.8 ± 1756.5 | 64%^⋄ | 3754.3 ± 1281.9 | inhibit amphetamine-induced rotational behavior | 68%^⋄ | 68%^⋄ | 46%^⋄* | – | – |
| O=C(CCCN1CCC(O)(c2ccc(Cl)cc2)CC1)c1ccc(F)cc1 [Haloperidol, reference compound] | – | – | – | – | – | – | – | – | – | – | – | – | – | – | – | – | – | – | 91%^⋄* | 1123.16 ± 280.11 |
